Data reported in ChEMBL document CHEMBL5338791, “Discovery of Novel 1,3-Diphenylpyrazine Derivatives as Potent S-Phase Kinase-Associated Protein 2 (Skp2) Inhibitors for the Treatment of Cancer” (J Med Chem, 2023).
Active and inactive are the calls of the source. The calls are words filed in the database; no cut-off is given here.

Assays:
PC-3 [1] = assay: Downregulation of Skp2 level in human PC-3 cells incubated for 48 hrs by Western blot analysis; type: functional, cell-based; conditions: dose <= 10.0 µM
PC-3 [2] = assay: Upregulation of p21 level in human PC-3 cells upto 10 uM by Western blot analysis; type: functional, cell-based; conditions: time 48.0 hrs, TDE = time-dependent effect
MGC-803 [3] = assay: Induction of cell cycle arrest in human MGC-803 cells assessed as accumulation of cells at G1 phase at 2.5 uM incubated for 48 hrs by flow cytometry (reference value: 54.46 %); type: functional
ES-2 = assay: Antitumor activity against human ES2 cells overexpressing Skp2 assessed as cell growth inhibition incubated for 72 hrs by MTT assay; type: functional, cell-based; conditions: ES-2, 72 h
MGC-803 [4] = assay: Upregulation of p27 level in human MGC-803 cells at 10 uM incubated upto 48 hrs by Western blot analysis; type: functional, cell-based
PC-3 [5] = assay: Inhibition of cell migration in human PC-3 cells incubated for 48 hrs by wound healing assay; type: functional, cell-based; conditions: dose <= 2.0 µM
PC-3 [6] = assay: Induction of cell cycle arrest in human PC-3 cells assessed as accumulation of cells at G1 phase at 2.5 uM incubated for 48 hrs by flow cytometry (reference value: 57.39 %); type: functional
PC-3 [7] = assay: Induction of cell cycle arrest in human PC-3 cells assessed as accumulation of cells at S phase at 2.5 uM incubated for 48 hrs by flow cytometry (reference value: 22.44 %); type: functional
PC-3 [8] = assay: Induction of cell cycle arrest in human PC-3 cells assessed as accumulation of cells at S phase at 5 uM incubated for 48 hrs by flow cytometry (reference value: 22.44 %); type: functional
PC-3 [9] = assay: Induction of cell cycle arrest in human PC-3 cells assessed as accumulation of cells at G1 phase at 10 uM incubated for 48 hrs by flow cytometry (reference value: 57.39 %); type: functional
MGC-803 [10] = assay: Induction of cell cycle arrest in human MGC-803 cells assessed as accumulation of cells at G2 phase at 2.5 uM incubated for 48 hrs by flow cytometry (reference value: 21.35 %); type: functional
MGC-803 [11] = assay: Induction of cell cycle arrest in human MGC-803 cells assessed as accumulation of cells at G1 phase at 5 uM incubated for 48 hrs by flow cytometry (reference value: 54.46 %); type: functional
MGC-803 [12] = assay: Induction of cell cycle arrest in human MGC-803 cells assessed as accumulation of cells at G2 phase at 5 uM incubated for 48 hrs by flow cytometry (reference value: 21.35 %); type: functional
MGC-803 [13] = assay: Induction of cell cycle arrest in human MGC-803 cells assessed as accumulation of cells at G1 phase at 10 uM incubated for 48 hrs by flow cytometry (reference value: 54.46 %); type: functional
MGC-803 [14] = assay: Induction of cell cycle arrest in human MGC-803 cells assessed as accumulation of cells at G2 phase at 10 uM incubated for 48 hrs by flow cytometry (reference value: 21.35 %); type: functional
PC-3 [15] = assay: Induction of cell cycle arrest in human PC-3 cells assessed as accumulation of cells at G1 phase at 10 uM incubated for 24 hrs by flow cytometry (reference value: 56.81 %); type: functional
PC-3 [16] = assay: Induction of cell cycle arrest in human PC-3 cells assessed as accumulation of cells at G2 phase at 10 uM incubated for 24 hrs by flow cytometry (reference value: 19.34 %); type: functional
PC-3 [17] = assay: Induction of cell cycle arrest in human PC-3 cells assessed as accumulation of cells at G1 phase at 10 uM incubated for 48 hrs by flow cytometry (reference value: 56.81 %); type: functional
PC-3 [18] = assay: Induction of cell cycle arrest in human PC-3 cells assessed as accumulation of cells at G2 phase at 10 uM incubated for 48 hrs by flow cytometry (reference value: 19.34 %); type: functional
MGC-803 [19] = assay: Induction of cell cycle arrest in human MGC-803 cells assessed as accumulation of cells at G1 phase at 10 uM incubated for 6 hrs by flow cytometry (reference value: 57.09 %); type: functional
MGC-803 [20] = assay: Induction of cell cycle arrest in human MGC-803 cells assessed as accumulation of cells at G1 phase at 10 uM incubated for 24 hrs by flow cytometry (reference value: 57.09 %); type: functional
MGC-803 [21] = assay: Induction of apoptosis in human MGC-803 cells assessed as nuclear condensation incubated for 48 hrs; type: functional, cell-based; conditions: dose <= 10.0 µM
PC-3 [22] = assay: Induction of apoptosis in human PC-3 cells assessed as late apoptotic cells at 2.5 uM incubated for 48 hrs by annexin V-FITC/PI staining based flow cytometry (reference value: 0.45 %); type: functional
PC-3 [23] = assay: Induction of apoptosis in human PC-3 cells assessed as necrotic cells at 2.5 uM incubated for 48 hrs by annexin V-FITC/PI staining based flow cytometry (reference value: 0.14 %); type: functional
PC-3 [24] = assay: Antitumor activity against human PC-3 cells xenografted in NOD-SCID mouse model assessed as tumor growth inhibition at 25 mg/kg, IG administered once every 2 days for 21 days relative to control; type: functional; conditions: PC-3, po, 504 h, time 21 day, read-out: TGI
PC-3 [25] = assay: Antitumor activity against human PC-3 cells xenografted in NOD-SCID mouse model assessed as tumor growth inhibition at 50 mg/kg, IG administered once every 2 days for 21 days relative to control; type: functional; conditions: PC-3, po, 504 h, time 21 day, read-out: TGI
[26] = Toxicity in NOD-SCID mouse model xenografted with human PC-3 cells assessed as drug tolerance at 10 to 50 mg/kg, IG administered once every 2 days for 21 days; type: organism-based; conditions: in vivo, po, 504 h, dose 10-50 mg/kg, time 21 day
PC-3 [27] = assay: Antitumor activity against human PC-3 cells xenografted in NOD-SCID mouse model assessed as p27 accumulation at 10 to 50 mg/kg, IG administered once every 2 days for 21 days by Western blot analysis; type: functional, organism-based; conditions: dose 10-50 mg/kg, time 21.0 day
[28] = Toxicity in NOD-SCID mouse model xenografted with human PC-3 cells assessed as change in heart histology at 10 to 50 mg/kg, IG administered once every 2 days for 21 days by H and E staining based analysis; type: organism-based; conditions: in vivo, po, 504 h, dose 10-50 mg/kg, time 21 day
MGC-803 [29] = assay: Antitumor activity against human MGC-803 cells xenografted in NOD-SCID mouse model assessed as downregulation of Skp2 expression at 10 to 50 mg/kg, IG administered once every 2 days for 21 days by Western blot analysis; type: functional, organism-based; conditions: dose 10-50 mg/kg, time 21.0 day
MGC-803 [30] = assay: Antitumor activity against human MGC-803 cells xenografted in NOD-SCID mouse model assessed as p27 accumulation at 10 to 50 mg/kg, IG administered once every 2 days for 21 days by Western blot analysis; type: functional, organism-based; conditions: dose 10-50 mg/kg, time 21.0 day
[31] = Toxicity in NOD-SCID mouse model xenografted with human MGC-803 cells assessed as change in kidney histology at 10 to 50 mg/kg, IG administered once every 2 days for 21 days by H and E staining based analysis; type: organism-based; conditions: in vivo, po, 504 h, dose 10-50 mg/kg, time 21 day
[32] = Metabolic stability in human liver S9 fraction assessed as half life at 20 umol/L preincubated for 5 mins followed by NADPH addition measured upto 60 mins by LC-MS/MS analysis; type: ADME, subcellular; conditions: dose 20 µmol/L, time < 65 min
[33] = Apparent volume of distribution in plasma of NOD-SCID mouse model xenografted with human PC-3 cells at 25 mg/kg, IG measured upto 48 hrs by LC-MS/MS analysis; type: ADME, organism-based; conditions: in vivo, po

SMILES: O=C(CCl)NC1CCN(c2cnc(-c3ccccc3)c(-c3ccccc3)n2)CC1
- Activity (PC-3 [1]): Dose-Dependent Effect
- Activity (PC-3 [2]): Tde
- Activity (MGC-803 [3]): 49.77%
- IC50 (ES-2): 3.6 µM
- Activity (MGC-803 [4]): Active
- inhibition (PC-3 [5]): Dose-Dependent Effect
- Activity (PC-3 [6]): 48.73%
- Activity (PC-3 [7]): 29.96%
- Activity (PC-3 [8]): 38.7%
- Activity (PC-3 [9]): 39.51%
- Activity (MGC-803 [10]): 23.15%
- Activity (MGC-803 [11]): 45.12%
- Activity (MGC-803 [12]): 18.74%
- Activity (MGC-803 [13]): 39.31%
- Activity (MGC-803 [14]): 14.35%
- Activity (PC-3 [15]): 38.62%
- Activity (PC-3 [16]): 15.19%
- Activity (PC-3 [17]): 35.47%
- Activity (PC-3 [18]): 16.14%
- Activity (MGC-803 [19]): 47.84%
- Activity (MGC-803 [20]): 44.68%
- Activity (MGC-803 [21]): Dose-Dependent Effect
- Activity (PC-3 [22]): 4.97%
- Activity (PC-3 [23]): 1.86%
- inhibition in vivo at 25 mg/kg (PC-3 [24]): 71.9%
- inhibition in vivo at 50 mg/kg (PC-3 [25]): 90.4%
- Activity [26]: Non-Toxic
- Activity (PC-3 [27]): Active
- Activity [28]: Non-Toxic
- Activity (MGC-803 [29]): Active
- Activity (MGC-803 [30]): Active
- Activity [31]: Non-Toxic
- half-life at 20 µM [32]: 1.08 h
- Vz [33]: 143.3 L/kg
